Legend:
Type in all cases: in vivo
[1] = test system: patient exhibiting rheumatoid arthritis and severe consequential synovial inflammation; test: Treatment of synovial inflammation/synovitis consequent to inflammatory processes, trial on a patient (Example 1); conditions: for outcome of previous treatment: same rheumatoid arthritis patient, treatment before trial entry
Experimental: The subject is treated for 5 days sequentially with tropisetron administered at a dose of 2 mg/day i.v. Treatment results in amelioration of the synovial inflammation, a reduction of stiffness in the morning and remission from the formation of effusion in the kneejoint.

[2] = test system: patient exhibiting marked dermatomyositis with bioptically verified vasculitis; test: Treatment of dermatomyositis/vasculitis, patient (Example 3)
[3] = test system: patient with meniscus damage and arthritic change leading to synovial inflammation with knee joint effusion; test: Treatment of synovial inflammation with knee joint effusion, patient (Example 2)
Experimental: Two 2 mg doses of tropisetron are administered i.v. over a period of 17 days with 15 injections, one each day with a 2 days pause in therapy. […] The improvement in condition continues over a further 7 days observation following completion of therapy.

[4] = 3 injections i.v., each 2 mg, observed already after the first injection
[5] = rheumatoid arthritis patient, 2 mg/day i.v. for 5 days

Row | SMILES | outcome of previous treatment [1] | massive reddening of the skin [2, 4] | pain symptoms [2, 4] | complaints in follow-up ([2]; over a period of one week following) | formation of effusion in the knee joint [1, 5] | glucocorticoid requirements [1, 5] | measure parameters for inflammation [1, 5] | stiffness in the morning [1, 5] | synovial inflammation [1, 5] | movement of the knee joint ([3]; 2 mg i.v., 15 injections over 17 days) | pain ([3]; 24 hours after the first i.v. injection of 2 mg) | symptoms ([3]; following continuation of injections (2 mg i.v., 15 injections over 17 days)) | duration of continued improvement in condition after completion of therapy ([3]; observation following completion of therapy) [days] | exudation from the knee joint ([3]; within 8 days, without any other medication)
1 | CN(Cc1cnc2nc(N)nc(N)c2n1)c1ccc(C(=O)N[C@@H](CCC(=O)O)C(=O)O)cc1 [methotrexate] | largely unsuccessfully | – | – | – | – | – | – | – | – | – | – | – | – | –
2 | CN1[C@@H]2CC[C@H]1C[C@@H](OC(=O)c1c[nH]c3ccccc13)C2 [tropisetron, Indol-3-yl-carboxylic acid-endo-8-methyl-8-aza-bicyclo[3,2,1]-oct-3-yl-ester] | – | Virtually complete remission | clear reduction | substantially complaint free | remission | marked reduction | reduction | reduction | amelioration | clearly improved | significant improvement | virtually free of symptoms | 7 | completely inhibited
3 | Cn1cnc([N+](=O)[O-])c1Sc1ncnc2[nH]cnc12 [azathioprin] | largely unsuccessfully | – | – | – | – | – | – | – | – | – | – | – | – | –

— US6384042B2, “Systemic use of 5-HT3 receptor antagonists against rheumatic inflammatory processes” (priority 1999, dated 2002)
